Experimental data as given in publication PMC8482806, “A Novel Blood-Brain Barrier-Permeable Chemotherapeutic Agent for the Treatment of Glioblastoma” (Cureus, 2021).

Experiment: [14C]-QBS10072S distribution by quantitative whole-body autoradiography in mice with intracranial LN229 tumors
Assay type: in vivo, mouse
Details: 5 mg/kg IV
Procedure: Athymic mice with intracranial implanted LN229 cells received a single IV dose of 5 mg/kg and 200 μCi/kg [14C]-QBS10072S into the tail vein using the formulation described above. Animals (one per time point) were sacrificed one, eight, and 24 hours post-dose, and frozen in a hexane/solid carbon dioxide bath for at least 10 minutes. The carcasses were processed as described for quantitative whole-body autoradiography. Briefly, sagittal sections (~ 40 μm thick) were cut using a microtome, mounted, and exposed to a [14C]-sensitive phosphor imaging plate for four days. The images were scanned and quantitated by image densitometry using MCID image analysis software. The concentrations of radioactivity were expressed as the μg equivalents of test article per gram sample (μg equiv/g). The upper and lower limits of quantification were 550 and 0.008 μg equiv/g, respectively (QPS, Newark, DE).

## Cc1ccc(N(CCCl)C[14CH2]Cl)cc1C[C@H](N)CC(=O)O.Cl.Cl [[14C]-QBS10072S, [chloroethyl-2-14C]-QBS10072S×2HCl]
Adipose (brown), 1 h
  Tissue Concentration: 2.528 µg equiv/g tissue
Adipose (brown), 8 h
  Tissue Concentration: 0.440 µg equiv/g tissue
Adipose (brown), 24 h
  Tissue Concentration: 0.577 µg equiv/g tissue
Adipose (white), 1 h
  Tissue Concentration: 0.409 µg equiv/g tissue
Adipose (white), 8 h
  Tissue Concentration: 0.348 µg equiv/g tissue
Adipose (white), 24 h
  Tissue Concentration: 0.381 µg equiv/g tissue
Adrenal Gland, 1 h
  Tissue Concentration: 2.700 µg equiv/g tissue
Adrenal Gland, 8 h
  Tissue Concentration: 0.638 µg equiv/g tissue
Adrenal Gland, 24 h
  Tissue Concentration: 0.533 µg equiv/g tissue
Blood (cardiac), 1 h
  Tissue Concentration: 2.204 µg equiv/g tissue
Blood (cardiac), 8 h
  Tissue Concentration: 0.581 µg equiv/g tissue
Blood (cardiac), 24 h
  Tissue Concentration: 0.734 µg equiv/g tissue
Bone, 1 h
  Tissue Concentration: 0.350 µg equiv/g tissue
Bone, 8 h
  Tissue Concentration: 0.165 µg equiv/g tissue
Bone, 24 h
  Tissue Concentration: 0.065 µg equiv/g tissue
Brain (cerebellum), 1 h
  Tissue Concentration: 0.395 µg equiv/g tissue
Brain (cerebellum), 8 h
  Tissue Concentration: 0.105 µg equiv/g tissue
Brain (cerebellum), 24 h
  Tissue Concentration: 0.120 µg equiv/g tissue
Brain (cerebrum), 1 h
  Tissue Concentration: 0.469 µg equiv/g tissue
Brain (cerebrum), 8 h
  Tissue Concentration: 0.109 µg equiv/g tissue
Brain (cerebrum), 24 h
  Tissue Concentration: 0.101 µg equiv/g tissue
Brain (medulla), 1 h
  Tissue Concentration: 0.403 µg equiv/g tissue
Brain (medulla), 8 h
  Tissue Concentration: 0.081 µg equiv/g tissue
Brain (medulla), 24 h
  Tissue Concentration: 0.118 µg equiv/g tissue
Cecum (contents), 1 h
  Tissue Concentration: 3.895 µg equiv/g tissue
Cecum (contents), 8 h
  Tissue Concentration: 24.266 µg equiv/g tissue
Cecum (contents), 24 h
  Tissue Concentration: 9.502 µg equiv/g tissue
Cecum, 1 h
  Tissue Concentration: 2.419 µg equiv/g tissue
Cecum, 8 h
  Tissue Concentration: 0.924 µg equiv/g tissue
Cecum, 24 h
  Tissue Concentration: 0.655 µg equiv/g tissue
Choroid Plexus, 1 h
  Tissue Concentration: 0.815 µg equiv/g tissue
Choroid Plexus, 8 h
  Tissue Concentration: 0.159 µg equiv/g tissue
Choroid Plexus, 24 h
  Tissue Concentration: 0.186 µg equiv/g tissue
Esophagus, 1 h
  Tissue Concentration: 1.211 µg equiv/g tissue
Esophagus, 8 h
  Tissue Concentration: 0.442 µg equiv/g tissue
Esophagus, 24 h
  Tissue Concentration: 0.565 µg equiv/g tissue
Harderian Gland, 1 h
  Tissue Concentration: 3.371 µg equiv/g tissue
Harderian Gland, 8 h
  Tissue Concentration: 0.468 µg equiv/g tissue
Harderian Gland, 24 h
  Tissue Concentration: 0.329 µg equiv/g tissue
Heart, 1 h
  Tissue Concentration: 2.165 µg equiv/g tissue
Heart, 8 h
  Tissue Concentration: 0.489 µg equiv/g tissue
Heart, 24 h
  Tissue Concentration: 0.480 µg equiv/g tissue
Kidney (outer medulla), 1 h
  Tissue Concentration: 6.281 µg equiv/g tissue
Kidney (outer medulla), 8 h
  Tissue Concentration: 1.372 µg equiv/g tissue
Kidney (outer medulla), 24 h
  Tissue Concentration: 1.164 µg equiv/g tissue
Large Intestine, 1 h
  Tissue Concentration: 1.437 µg equiv/g tissue
Liver, 1 h
  Tissue Concentration: 5.522 µg equiv/g tissue
Liver, 8 h
  Tissue Concentration: 0.674 µg equiv/g tissue
Liver, 24 h
  Tissue Concentration: 0.598 µg equiv/g tissue
Lung, 1 h
  Tissue Concentration: 2.943 µg equiv/g tissue
Lung, 8 h
  Tissue Concentration: 0.684 µg equiv/g tissue
Lung, 24 h
  Tissue Concentration: 0.620 µg equiv/g tissue
Mammary Gland Region, 1 h
  Tissue Concentration: 0.485 µg equiv/g tissue
Mammary Gland Region, 8 h
  Tissue Concentration: 0.173 µg equiv/g tissue
Mammary Gland Region, 24 h
  Tissue Concentration: 0.365 µg equiv/g tissue
Ovary, 1 h
  Tissue Concentration: 2.564 µg equiv/g tissue
Ovary, 8 h
  Tissue Concentration: 0.563 µg equiv/g tissue
Ovary, 24 h
  Tissue Concentration: 0.585 µg equiv/g tissue
Pancreas, 1 h
  Tissue Concentration: 3.270 µg equiv/g tissue
Pancreas, 8 h
  Tissue Concentration: 0.546 µg equiv/g tissue
Pancreas, 24 h
  Tissue Concentration: 0.442 µg equiv/g tissue
Pituitary Gland, 1 h
  Tissue Concentration: 1.689 µg equiv/g tissue
Pituitary Gland, 8 h
  Tissue Concentration: 0.468 µg equiv/g tissue
Pituitary Gland, 24 h
  Tissue Concentration: 0.128 µg equiv/g tissue
Salivary Gland, 1 h
  Tissue Concentration: 2.429 µg equiv/g tissue
Salivary Gland, 8 h
  Tissue Concentration: 0.428 µg equiv/g tissue
Salivary Gland, 24 h
  Tissue Concentration: 0.368 µg equiv/g tissue
Skeletal Muscle, 1 h
  Tissue Concentration: 1.123 µg equiv/g tissue
Skeletal Muscle, 8 h
  Tissue Concentration: 0.602 µg equiv/g tissue
Skeletal Muscle, 24 h
  Tissue Concentration: 0.627 µg equiv/g tissue
Skin, 1 h
  Tissue Concentration: 1.496 µg equiv/g tissue
Skin, 8 h
  Tissue Concentration: 0.479 µg equiv/g tissue
Skin, 24 h
  Tissue Concentration: 0.425 µg equiv/g tissue
Spinal Cord, 1 h
  Tissue Concentration: 0.480 µg equiv/g tissue
Spinal Cord, 8 h
  Tissue Concentration: 0.100 µg equiv/g tissue
Spinal Cord, 24 h
  Tissue Concentration: 0.120 µg equiv/g tissue
Thyroid, 1 h
  Tissue Concentration: 1.802 µg equiv/g tissue
Thyroid, 8 h
  Tissue Concentration: 0.374 µg equiv/g tissue
Thyroid, 24 h
  Tissue Concentration: 0.653 µg equiv/g tissue
Tumor High, 1 h
  Tissue Concentration: 2.836 µg equiv/g tissue
Tumor High, 8 h
  Tissue Concentration: 0.575 µg equiv/g tissue
Tumor High, 24 h
  Tissue Concentration: 0.479 µg equiv/g tissue
Tumor Low, 1 h
  Tissue Concentration: 1.245 µg equiv/g tissue
Tumor Low, 8 h
  Tissue Concentration: 0.162 µg equiv/g tissue
Tumor Low, 24 h
  Tissue Concentration: 0.240 µg equiv/g tissue
Tumor, 1 h
  Tissue Concentration: 1.961 µg equiv/g tissue
Tumor, 8 h
  Tissue Concentration: 0.427 µg equiv/g tissue
Tumor, 24 h
  Tissue Concentration: 0.275 µg equiv/g tissue
Urinary Bladder (contents), 1 h
  Tissue Concentration: 206.798 µg equiv/g tissue
Urinary Bladder (contents), 8 h
  Tissue Concentration: 1.716 µg equiv/g tissue
Urinary Bladder (contents), 24 h
  Tissue Concentration: 0.811 µg equiv/g tissue
Urinary Bladder, 1 h
  Tissue Concentration: 3.914 µg equiv/g tissue
Urinary Bladder, 8 h
  Tissue Concentration: 0.821 µg equiv/g tissue
Urinary Bladder, 24 h
  Tissue Concentration: 0.485 µg equiv/g tissue
Uterus, 1 h
  Tissue Concentration: 1.849 µg equiv/g tissue
Uterus, 8 h
  Tissue Concentration: 0.563 µg equiv/g tissue
Uterus, 24 h
  Tissue Concentration: 0.511 µg equiv/g tissue
Vagina, 1 h
  Tissue Concentration: 1.337 µg equiv/g tissue
Vagina, 8 h
  Tissue Concentration: 0.640 µg equiv/g tissue
Vagina, 24 h
  Tissue Concentration: 0.629 µg equiv/g tissue
